# Test results taken from PubChem BioAssay (NCI).
#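 A five-concentration, 48-hour dose response in 96-well plates underlies each endpoint, interpolated linearly between surrounding concentrations. The concentration for 50% growth inhibition is given as GI50. TGI: total growth inhibition.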
# How the values were obtained:
# Assay in all cases: NCI tumour cell line growth inhibition, 48 h
# [1] = system: A549 NSCLC
# [2] = system: SNB-75 CNS
# [3] = system: LOX IMVI melanoma
# [4] = system: RPMI-8226 leukemia
# [5] = system: HOP-62 NSCLC
# [6] = system: UACC-62 melanoma
# [7] = system: SW-620 colon
# [8] = system: NCI-H522 lung
# [9] = system: CCRF-CEM leukemia
# [10] = system: OVCAR-8 ovarian
# [11] = system: HCT-15 colon
# [12] = system: CAKI-1 renal
# [13] = system: OVCAR-4 ovarian
# [14] = system: MOLT-4 leukemia
# [15] = system: SF-295 CNS
# [16] = system: SNB-19 CNS
# [17] = system: SF-268 CNS
# [18] = system: OVCAR-5 ovarian
# [19] = system: MCF7 breast
# [20] = system: UACC-257 melanoma
# [21] = system: EKVX NSCLC
# [22] = system: NCI/ADR-RES ovarian
# [23] = system: OVCAR-3 ovarian
# [24] = system: HL-60(TB) leukemia
# [25] = system: IGROV1 ovarian
# [26] = system: SK-MEL-28 melanoma
# [27] = system: KM12 colon
# [28] = system: UO-31 renal
# [29] = system: SR leukemia
# [30] = system: U251 CNS
# [31] = system: MDA-MB-435
# [32] = system: RXF 393 renal
# [33] = system: SN12C renal
# [34] = system: NCI-H460 lung
# [35] = system: SK-OV-3 ovarian
# [36] = system: HCC-2998 colon
# [37] = system: HOP-92 NSCLC
# [38] = system: HS 578T breast
# [39] = system: SF-539 CNS
# [40] = system: TK-10 renal
# [41] = system: BT-549 breast
# [42] = system: DU-145 prostate
# [43] = system: SK-MEL-2 melanoma
# [44] = system: PC-3 prostate
# [45] = system: COLO 205 colon
# [46] = system: 786-0 renal
# [47] = system: A498 renal
# [48] = system: MALME-3M melanoma
# [49] = system: HT29 colon
# [50] = system: T-47D breast
# [51] = system: ACHN renal
# [52] = system: NCI-H226 lung
# [53] = system: HCT-116 colon
# [54] = system: SK-MEL-5 melanoma
# [55] = system: K-562 leukemia
# [56] = system: MDA-MB-231 breast
# [57] = system: NCI-H23 lung
compound,measurement,setting,value
CC(=O)OC[C@@]12Oc3c(cccc3-c3ccc(O)c4c3O[C@]3(COC(C)=O)C(=C4O)C(=O)C[C@H](C)[C@@H]3OC(C)=O)C(O)=C1C(=O)C[C@H](C)[C@@H]2OC(C)=O,GI50,[1],4.06 µM
same,TGI,[1],> 100 µM
same,GI50,[2],2.53 µM
same,TGI,[2],42.8 µM
same,GI50,[3],3.53 µM
same,TGI,[3],12.9 µM
same,GI50,[4],6.08 µM
same,TGI,[4],46.1 µM
same,GI50,[5],4.19 µM
same,TGI,[5],> 100 µM
same,GI50,[6],5.75 µM
same,TGI,[6],> 100 µM
same,GI50,[7],33.2 µM
same,TGI,[7],> 100 µM
same,GI50,[8],7.97 µM
same,TGI,[8],46.4 µM
same,GI50,[9],5.92 µM
same,TGI,[9],> 100 µM
same,GI50,[10],6.39 µM
same,TGI,[10],> 100 µM
same,GI50,[11],5.45 µM
same,TGI,[11],> 100 µM
same,GI50,[12],28.6 µM
same,TGI,[12],> 100 µM
same,GI50,[13],29.4 µM
same,TGI,[13],> 100 µM
same,GI50,[14],10.9 µM
same,TGI,[14],> 100 µM
same,GI50,[15],6.92 µM
same,TGI,[15],80.8 µM
same,GI50,[16],15.7 µM
same,TGI,[16],> 100 µM
same,GI50,[17],4.32 µM
same,TGI,[17],> 100 µM
same,GI50,[18],29.3 µM
same,TGI,[18],> 100 µM
same,GI50,[19],26.1 µM
same,TGI,[19],> 100 µM
same,GI50,[20],3.4 µM
same,TGI,[20],31.4 µM
same,GI50,[21],24.3 µM
same,TGI,[21],> 100 µM
same,GI50,[22],32.7 µM
same,TGI,[22],> 100 µM
same,GI50,[23],13.9 µM
same,TGI,[23],> 100 µM
same,GI50,[24],17.7 µM
same,TGI,[24],56.6 µM
same,GI50,[25],7.12 µM
same,TGI,[25],> 100 µM
same,GI50,[26],6.1 µM
same,TGI,[26],> 100 µM
same,GI50,[27],27.5 µM
same,TGI,[27],> 100 µM
same,GI50,[28],23.9 µM
same,TGI,[28],> 100 µM
same,GI50,[29],3.68 µM
same,TGI,[29],> 100 µM
same,GI50,[30],4.08 µM
same,TGI,[30],> 100 µM
same,GI50,[31],5.3 µM
same,TGI,[31],> 100 µM
same,GI50,[32],9.39 µM
same,TGI,[32],50.5 µM
same,GI50,[33],6.98 µM
same,TGI,[33],> 100 µM
same,GI50,[34],4.83 µM
same,TGI,[34],> 100 µM
same,GI50,[35],25.5 µM
same,TGI,[35],88.6 µM
same,GI50,[36],6.13 µM
same,TGI,[36],> 100 µM
same,GI50,[37],5 µM
same,TGI,[37],38.5 µM
same,GI50,[38],3.77 µM
same,TGI,[38],> 100 µM
same,GI50,[39],3.97 µM
same,TGI,[39],> 100 µM
same,GI50,[40],29.9 µM
same,TGI,[40],> 100 µM
same,GI50,[41],4.54 µM
same,TGI,[41],> 100 µM
same,GI50,[42],10.8 µM
same,TGI,[42],> 100 µM
same,GI50,[43],14.7 µM
same,TGI,[43],63.9 µM
same,GI50,[44],15.3 µM
same,TGI,[44],> 100 µM
same,GI50,[45],19.7 µM
same,TGI,[45],48.9 µM
same,GI50,[46],33.5 µM
same,TGI,[46],> 100 µM
same,GI50,[47],3.3 µM
same,TGI,[47],48.4 µM
same,GI50,[48],6.88 µM
same,TGI,[48],56.5 µM
same,GI50,[49],7.87 µM
same,TGI,[49],> 100 µM
same,GI50,[50],18.5 µM
same,TGI,[50],> 100 µM
same,GI50,[51],30.3 µM
same,TGI,[51],> 100 µM
same,GI50,[52],20.2 µM
same,TGI,[52],63.5 µM
same,GI50,[53],28.3 µM
same,TGI,[53],> 100 µM
same,GI50,[54],4.76 µM
same,TGI,[54],16.9 µM
same,GI50,[55],30.5 µM
same,TGI,[55],> 100 µM
same,GI50,[56],25.5 µM
same,TGI,[56],> 100 µM
same,GI50,[57],10.6 µM
same,TGI,[57],> 100 µM
